In general, melting point refers to the temperature, or range, at which the solid turns liquid.

Tested on in the first data set: not given
Details: not given
In turn, `COc1ccc2cccc(C3CCN(Cc4ccc(-c5ccccc5)cc4)CC3)c2n1` [Compound 3a, 8-(1-(Biphenyl-4-ylmethyl)piperidin-4-yl)-2-methoxyquinoline] came in with a melting point of 84 to 85 °C. In turn, `O=c1ccc2cccc(C3CCN(Cc4cncc(-c5ccc(F)cc5)c4)CC3)c2[nH]1` [Compound 4d, 8-(1-((5-(4-Fluorophenyl)pyridin-3-yl)methyl)piperidin-4-yl)quinolin-2(1H)-one] returned a melting point of 161 to 163 °C. Compound `O=c1ccc2cccc(C3CCN(Cc4cncc(-c5ccccc5)c4)CC3)c2[nH]1` [Compound 4c, 8-(1-((5-Phenylpyridin-3-yl)methyl)piperidin-4-yl)quinolin-2(1H)-one] had a melting point of 158 to 160 °C. For `O=C1CCc2cccc(C3CCN(Cc4cncc(-c5ccc(F)cc5)c4)CC3)c2N1` [Compound 5d, 8-(1-((5-(4-Fluorophenyl)pyridin-3-yl)methyl)piperidin-4-yl)-3,4-dihydroquinolin-2(1H)-one], the melting point was in the range of 136 to 138 °C. With `O=C1CCc2cccc(C3CCN(Cc4cncc(C5=CCCC5)c4)CC3)c2N1` [Compound 5f, 8-(1-((5-cyclopentenylpyridin-3-yl)methyl)piperidin-4-yl)-3,4-dihydroquinolin-2(1H)-one], the melting point fell in the range of 123 to 125 °C.

Regarding `O=c1ccc2cccc(C3CCN(Cc4ccc(-c5ccccc5)cc4)CC3)c2[nH]1` [Compound 4a, 8-(1-(Biphenyl-4-ylmethyl)piperidin-4-yl)quinolin-2(1H)-one], the melting point lay within 146 to 148 °C. With `O=c1ccc2cccc(C3CCN(Cc4cncc(C5=CCCC5)c4)CC3)c2[nH]1` [Compound 4f, 8-(1-((5-Cyclopentenylpyridin-3-yl)-methyl)piperidin-4-yl)quinolin-2(1H)-one], the melting point fell in the range of 133 to 135 °C. On to `COc1ccc2cccc(C3CCN(Cc4cncc(-c5ccccc5)c4)CC3)c2n1` [Compound 3c, 2-Methoxy-8-(1-((5-phenylpyridin-3-yl)methyl)piperidin-4-yl)quinoline], for which the melting point fell in the range of 135 to 137 °C. `O=C1CCc2cccc(C3CCN(Cc4ccc(-c5ccccc5)cc4)CC3)c2N1` [Compound 5a, 8-(1-(Biphenyl-4-ylmethyl)piperidin-4-yl)-3,4-dihydroquinolin-2(1H)-one] gave a melting point of 116 to 118 °C. On the same count and under the same terms, next, `O=c1ccc2cccc(C3CCN(Cc4cccc(C5=CCCC5)c4)CC3)c2[nH]1` [Compound 4e, 8-(1-(3-Cyclopentenylbenzyl)piperidin-4-yl)quinolin-2(1H)-one]: 123 to 125 °C.

For the compound `COc1ccc2cccc(C3CCN(Cc4cccc(C5=CCCC5)c4)CC3)c2n1` [Compound 3e, 8-(1-(3-Cyclopentenylbenzyl)piperidin-4-yl)-2-methoxyquinoline], the melting point is 125 to 126 °C. With `O=c1ccc2cccc(C3CCN(Cc4ccc(-c5ccc(F)cc5)cc4)CC3)c2[nH]1` [Compound 4b, 8-(1-((4′-Fluorobiphenyl-4-yl)methyl)piperidin-4-yl)quinolin-2(1H)-one], the melting point was 159 to 161 °C. In turn, `O=C1CCc2cccc(C3CCN(Cc4ccc(-c5ccc(F)cc5)cc4)CC3)c2N1` [Compound 5b, 8-(1-((4′-Fluorobiphenyl-4-yl)methyl)piperidin-4-yl)-3,4-dihydroquinolin-2(1H)-one] showed a melting point of 132 to 134 °C.

Consider `O=C1CCc2cccc(C3CCN(Cc4cccc(C5=CCCC5)c4)CC3)c2N1` [Compound 5e, 8-(1-(3-Cyclopentenylbenzyl)piperidin-4-yl)-3,4-dihydroquinolin-2(1H)-one], for which the melting point lay in the range of 115 to 117 °C. Consider `COc1ccc2cccc(C3CCN(Cc4cncc(-c5ccc(F)cc5)c4)CC3)c2n1` [Compound 3d, 8-(1-((5-(4-Fluorophenyl)pyridin-3-yl)methyl)piperidin-4-yl)-2-methoxyquinoline], for which the melting point lay in the range of 156 to 158 °C.

For a further data set, the system named is phencyclidine-induced social interaction deficits. Conditions: background statement on prior-art compounds; cited from earlier work.
On to `O=c1[nH]c2cccc(N3CCN(Cc4cccc(-c5ccccc5)c4)CC3)c2o1` [bifeprunox], for which the “oppose phencyclidine-induced social interaction deficits” value is on record as “failure”. Regarding `Fc1ccc(-c2cncc(CN3CCN(c4cccc5c4OCCO5)CC3)c2)cc1` [adoprazine], the “oppose phencyclidine-induced social interaction deficits” value is given as “failure”.
